Source: patent US10494378B2, “Fused ring pyrimidine compound, intermediate, and preparation method, composition and use thereof” (GUANGZHOU MAXINOVEL PHARMACEUTICALS CO., LTD., priority 2015, dated 2019)

Tests used:
Type in all cases: biochemical
FGFR2 kinase = biological target: T1, FGFR2 kinase (Homo sapiens, UniProt P21802); experiment: IC50 evaluation assay of FGFR2 kinase inhibition (Caliper); settings: 28° C.; average of two tests; read-out: IC50 (nM) inhibiting FGFR 2 kinase
T1 construct: purchased Carna 08-134
Method: (§1) 1. The compound was dissolved in 100% DMSO, diluted into solutions with appropriate concentration gradients with water according to experimental requirement, and added to a 96-well plate.
(§2) 2. FGFR1 kinase (Carna, Cat. No. 08-133, Lot. No. 09CBS-0989) and FGFR2 kinase (Carna, Cat. No. 08-134, Lot. No. 07CBS-2468), JAK3 kinase (Carna, Cat. No. 08-135, Lot. No. 06CBS-3177) were diluted to the optimum concentration with the following buffer solution: 50 mM HEPES, pH 7.5, 0.0015% Brij-35, 2 mM DTT. Transfer to the 96-well plate and incubate with the compound at 28° C. for a period of time.
(§3) 3. The buffer solution (100 mM HEPES, pH 7.5, 0.0015% Brij-35, 0.2% Coating Reagent and […]) was added to terminate the reaction.
(§4) 4. The conversion rate was read with Caliper Reader. The inhibition rate was calculated as the average of two tests.

FGFR1 kinase = biological target: T2, FGFR1 kinase (Homo sapiens, UniProt P11362); experiment: IC50 evaluation assay of FGFR1 kinase inhibition (Caliper); settings: 28° C.; average of two tests; read-out: IC50 (nM) inhibiting FGFR 1 kinase
T2 construct: purchased Carna 08-133
Method: as §1, §2, §3, §4

HCK kinase = biological target: T3, HCK kinase (Homo sapiens, UniProt P08631); experiment: IC50 evaluation assay of Src family kinase inhibition: HCK; settings: 28° C.; average of two tests; read-out: IC50 (nM) inhibiting Src family kinase HCK
T3 construct: purchased BPS 40440
Method: as §1
(§5) 2. c-Src kinase (Carna, Cat. No. 08-173, Lot. No. 05CBS-1367), LYNαkinase (Carna, Cat. No. 08-171, Lot. No. 06CBS-3296D), FYN kinase (Carna, Cat. No. 08-068, Lot. No. 05CBS-1032), LCK kinase (Carna, Cat. No. 08-170, Lot. No. 07CBS-2482), HCK kinase (BPS, Cat. No. 40440, Lot. No. 1001), FGR kinase (Carna, Cat. No. 08-166, Lot. No. 05CBS-2781), YES kinase (Carna, Cat. No. 08-175, Lot. No. 06CBS-3247) were diluted to the optimum concentration with the following buffer solution: 50 mM HEPES, pH 7.5, 0.0015% Brij-35, 10 mM MgCl2, 2 mM DTT. Transfer to the 96-well plate and incubate with the compound at 28° C. for a period of time.
as §3, §4

FLT3-ITD kinase = biological target: T4, FLT3-ITD kinase (Homo sapiens, UniProt P36888); experiment: IC50 evaluation assay of FLT3-ITD kinase inhibition (Caliper); settings: 28° C.; average of two tests; read-out: IC50 (nM) inhibiting FLT3-ITD kinase
T4 sequence (P36888 1-993): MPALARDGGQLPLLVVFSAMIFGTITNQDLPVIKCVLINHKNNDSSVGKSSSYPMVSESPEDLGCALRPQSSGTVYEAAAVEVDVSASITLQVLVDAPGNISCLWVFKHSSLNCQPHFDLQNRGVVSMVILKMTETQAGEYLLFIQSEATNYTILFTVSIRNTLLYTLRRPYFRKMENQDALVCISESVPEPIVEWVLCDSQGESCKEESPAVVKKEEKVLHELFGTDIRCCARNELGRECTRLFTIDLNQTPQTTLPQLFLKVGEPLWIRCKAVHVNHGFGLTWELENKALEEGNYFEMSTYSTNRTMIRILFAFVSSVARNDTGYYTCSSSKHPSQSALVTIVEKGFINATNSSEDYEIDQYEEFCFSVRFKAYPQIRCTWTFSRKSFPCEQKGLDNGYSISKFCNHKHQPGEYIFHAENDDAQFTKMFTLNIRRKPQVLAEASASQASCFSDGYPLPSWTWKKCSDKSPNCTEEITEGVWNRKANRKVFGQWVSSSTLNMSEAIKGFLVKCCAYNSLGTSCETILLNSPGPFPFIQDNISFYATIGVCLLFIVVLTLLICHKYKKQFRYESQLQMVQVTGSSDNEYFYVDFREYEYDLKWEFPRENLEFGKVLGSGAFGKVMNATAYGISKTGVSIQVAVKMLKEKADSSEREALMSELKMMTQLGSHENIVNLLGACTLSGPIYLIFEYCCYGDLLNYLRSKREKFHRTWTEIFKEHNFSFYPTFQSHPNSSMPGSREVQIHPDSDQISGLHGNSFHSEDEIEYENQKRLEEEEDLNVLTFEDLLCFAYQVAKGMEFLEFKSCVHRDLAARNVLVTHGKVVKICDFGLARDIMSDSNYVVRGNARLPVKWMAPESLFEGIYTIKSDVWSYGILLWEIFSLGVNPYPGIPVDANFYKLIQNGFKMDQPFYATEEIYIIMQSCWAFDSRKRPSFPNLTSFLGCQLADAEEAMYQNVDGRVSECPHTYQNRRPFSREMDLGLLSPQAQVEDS
Method: as §1
2. FLT3 kinase (Carna, Cat. No. 08-154, Lot. No. 07CBS-2350), FLT3-ITD kinase (Invitrogen, Cat. No. PV6191, Lot. No. 1753453) and FLT3-D835Y kinase (Invitrogen, Cat. No. PR7450A, Lot. No. 1629729C) were diluted to the optimum concentration with the following buffer solution: 50 mM HEPES, pH 7.5, 0.0015% Brij-35, 10 mM MgCl2, 2 mM DTT. Transfer to the 96-well plate and incubate with the compound at 28° C. for a period of time.
as §3, §4

c-Src kinase = biological target: T5, c-Src kinase (Homo sapiens, UniProt P12931); experiment: IC50 evaluation assay of Src family kinase inhibition: c-Src; settings: 28° C.; average of two tests; read-out: IC50 (nM) inhibiting Src family kinase c-Src
T5 construct: purchased Carna 08-173
Method: as §1, §5, §3, §4

LYNα kinase = biological target: T6, LYNα kinase (Homo sapiens, UniProt P07948); experiment: IC50 evaluation assay of Src family kinase inhibition: LYNα; settings: 28° C.; average of two tests; read-out: IC50 (nM) inhibiting Src family kinase LYNα
T6 construct: purchased Carna 08-171
Method: as §1, §5, §3, §4

T5 sequence (P12931 whole entry): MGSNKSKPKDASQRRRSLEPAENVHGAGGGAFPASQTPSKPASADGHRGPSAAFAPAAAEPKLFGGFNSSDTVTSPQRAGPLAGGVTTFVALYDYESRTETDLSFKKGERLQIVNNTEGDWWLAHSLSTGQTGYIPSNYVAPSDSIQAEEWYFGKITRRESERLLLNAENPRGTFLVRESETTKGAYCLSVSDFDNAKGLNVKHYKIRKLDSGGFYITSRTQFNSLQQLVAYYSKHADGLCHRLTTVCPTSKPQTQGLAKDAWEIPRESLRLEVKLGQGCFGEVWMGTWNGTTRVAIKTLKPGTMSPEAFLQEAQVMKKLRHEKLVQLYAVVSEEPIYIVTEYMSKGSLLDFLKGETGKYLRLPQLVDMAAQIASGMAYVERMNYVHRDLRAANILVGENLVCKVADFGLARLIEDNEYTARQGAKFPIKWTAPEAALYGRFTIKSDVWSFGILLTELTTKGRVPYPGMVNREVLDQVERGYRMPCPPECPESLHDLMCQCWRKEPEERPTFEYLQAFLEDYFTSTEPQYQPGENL
T1 sequence (P21802 22-821): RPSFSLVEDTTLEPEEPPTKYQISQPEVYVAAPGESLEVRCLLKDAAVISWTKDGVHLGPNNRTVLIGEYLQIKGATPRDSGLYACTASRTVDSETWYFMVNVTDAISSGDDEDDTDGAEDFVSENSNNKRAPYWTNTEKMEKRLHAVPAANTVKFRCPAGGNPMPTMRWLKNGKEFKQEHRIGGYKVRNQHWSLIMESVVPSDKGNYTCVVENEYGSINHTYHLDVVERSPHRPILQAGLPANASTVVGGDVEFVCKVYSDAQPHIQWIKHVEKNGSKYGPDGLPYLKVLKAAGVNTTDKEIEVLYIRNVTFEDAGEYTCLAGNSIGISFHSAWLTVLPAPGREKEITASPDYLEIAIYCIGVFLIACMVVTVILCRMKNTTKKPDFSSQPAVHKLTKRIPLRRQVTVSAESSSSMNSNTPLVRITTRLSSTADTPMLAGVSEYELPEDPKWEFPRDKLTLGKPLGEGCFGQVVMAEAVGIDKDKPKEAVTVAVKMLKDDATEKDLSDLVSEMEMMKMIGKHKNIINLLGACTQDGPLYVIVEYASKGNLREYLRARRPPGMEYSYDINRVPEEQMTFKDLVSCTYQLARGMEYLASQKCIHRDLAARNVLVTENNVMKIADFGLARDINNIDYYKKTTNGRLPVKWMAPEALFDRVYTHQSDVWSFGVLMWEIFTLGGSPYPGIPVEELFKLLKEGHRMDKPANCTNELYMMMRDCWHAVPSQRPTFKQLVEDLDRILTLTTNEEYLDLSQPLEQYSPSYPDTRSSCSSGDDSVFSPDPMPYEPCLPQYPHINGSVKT
T3 sequence (P08631 whole entry): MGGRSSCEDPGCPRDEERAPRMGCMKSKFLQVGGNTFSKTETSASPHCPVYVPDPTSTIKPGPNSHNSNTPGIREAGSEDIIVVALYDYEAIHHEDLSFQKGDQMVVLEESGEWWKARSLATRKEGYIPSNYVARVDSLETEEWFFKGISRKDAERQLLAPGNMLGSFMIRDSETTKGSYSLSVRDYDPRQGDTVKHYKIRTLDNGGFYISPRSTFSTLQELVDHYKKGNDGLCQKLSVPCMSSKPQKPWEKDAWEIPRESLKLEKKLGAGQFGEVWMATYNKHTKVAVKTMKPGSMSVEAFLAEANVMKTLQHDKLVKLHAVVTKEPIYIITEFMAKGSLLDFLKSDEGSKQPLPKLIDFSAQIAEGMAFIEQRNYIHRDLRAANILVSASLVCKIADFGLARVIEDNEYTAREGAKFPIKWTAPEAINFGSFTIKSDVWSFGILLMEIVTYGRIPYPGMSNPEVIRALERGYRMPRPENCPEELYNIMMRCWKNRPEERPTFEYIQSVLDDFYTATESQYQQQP
T2 sequence (P11362 22-822): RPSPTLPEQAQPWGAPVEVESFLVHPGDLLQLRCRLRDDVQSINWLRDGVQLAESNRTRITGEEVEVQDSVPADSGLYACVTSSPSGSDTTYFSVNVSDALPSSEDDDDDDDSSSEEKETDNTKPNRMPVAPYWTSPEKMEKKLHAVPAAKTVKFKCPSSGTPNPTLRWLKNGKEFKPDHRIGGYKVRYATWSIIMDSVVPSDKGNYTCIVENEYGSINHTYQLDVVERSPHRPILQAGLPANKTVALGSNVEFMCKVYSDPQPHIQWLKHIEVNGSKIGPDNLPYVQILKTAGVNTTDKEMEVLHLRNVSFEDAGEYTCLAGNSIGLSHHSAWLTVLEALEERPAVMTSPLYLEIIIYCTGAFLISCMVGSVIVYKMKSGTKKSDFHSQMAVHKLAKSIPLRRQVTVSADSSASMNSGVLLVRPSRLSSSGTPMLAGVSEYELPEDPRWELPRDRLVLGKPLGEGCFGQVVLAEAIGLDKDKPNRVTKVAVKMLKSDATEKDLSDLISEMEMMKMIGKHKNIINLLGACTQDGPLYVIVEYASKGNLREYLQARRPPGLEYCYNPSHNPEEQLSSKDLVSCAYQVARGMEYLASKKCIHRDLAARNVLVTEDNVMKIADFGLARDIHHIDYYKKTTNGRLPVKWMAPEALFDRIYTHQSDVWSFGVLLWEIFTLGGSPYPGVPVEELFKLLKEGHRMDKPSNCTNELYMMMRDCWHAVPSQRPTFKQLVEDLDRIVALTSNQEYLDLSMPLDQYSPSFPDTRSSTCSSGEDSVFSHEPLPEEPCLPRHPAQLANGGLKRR
T6 sequence (P07948 whole entry): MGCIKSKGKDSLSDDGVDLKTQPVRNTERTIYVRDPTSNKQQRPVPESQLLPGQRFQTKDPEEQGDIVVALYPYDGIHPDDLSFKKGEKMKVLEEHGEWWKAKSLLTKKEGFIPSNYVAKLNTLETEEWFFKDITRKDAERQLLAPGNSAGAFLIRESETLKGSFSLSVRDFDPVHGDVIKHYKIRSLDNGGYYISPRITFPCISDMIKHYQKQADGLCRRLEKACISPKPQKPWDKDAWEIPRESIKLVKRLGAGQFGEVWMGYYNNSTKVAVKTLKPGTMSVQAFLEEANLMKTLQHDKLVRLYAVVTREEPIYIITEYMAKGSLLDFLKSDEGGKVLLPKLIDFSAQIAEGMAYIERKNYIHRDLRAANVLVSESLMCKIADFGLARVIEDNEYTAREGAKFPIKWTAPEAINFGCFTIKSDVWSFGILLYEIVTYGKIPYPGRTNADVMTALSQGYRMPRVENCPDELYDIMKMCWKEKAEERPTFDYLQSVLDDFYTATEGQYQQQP

Structure (SMILES) | IC50 (FGFR2 kinase) | IC50 (FGFR1 kinase) | IC50 (HCK kinase) | IC50 (FLT3-ITD kinase) | IC50 (c-Src kinase) | IC50 (LYNα kinase)
COc1cc(F)ccc1-c1c(C)sc2cnc(Nc3cnn(C4CCN(CCO)CC4)c3)nc12 [Compound 34, 2-[4-(4-{[7-(4-fluoro-2-methoxyphenyl)-6-methylthieno[3,2-d]pyrimidinyl-2-yl]amino}-1H-pyrazol-1-yl)-piperidinyl-1-yl]-1-ethanol] | 8.9 nM | 3.8 nM | 27 nM | 0.33 nM | 6.3 nM | < 5 nM
COc1cc(F)ccc1-c1c(C)sc2cnc(Nc3cnn(C4CCNCC4)c3)nc12 [Compound 31, N-[7-(4-fluoro-2-methoxyphenyl)-6-methylthieno[3,2-d]pyrimidinyl-2-yl]-1-(piperidinyl-4-yl)-1H-pyrazol-4-amine] | 10 nM | 5.1 nM | 30 nM | 0.34 nM | 6 nM | 1.3 nM
